Measurements from patent publication US9315475B2 (MERCK SHARP & DOHME CORP., priority 2011, dated 2016).

Molecular target: T1, wildtype HIV-1 protease (Human immunodeficiency virus type 1 group M subtype B, UniProt P04585)
T1 construct: the wildtype HIV-1 protease (which was expressed in Escherichia coli); made in house; host or cells: Escherichia coli
Experiment: Assay for inhibition of microbial expressed HIV protease (Pepcleav)
Format: biochemical
Settings: Pepcleav (nM)
Procedure: Assay for Inhibition of Microbial Expressed HIV Protease (“Pepcleav”)
Studies of the inhibition of the wildtype HIV-1 protease (which was expressed in Escherichia coli) were carried out with a peptide substrate [Val-Ser-Gln-Asn-(βnaphthyl)Ala-Pro-Ile-Val (SEQ ID NO:1)]. The inhibitor is first preincubated with the HIV-1 protease (wild type) enzyme in assay buffer (50 mM sodium acetate, pH 5.5, 100 mM NaCl, and 0.1% BSA) for 30 minutes at room temperature. Substrate is added to 400 micromolar in a total volume of 20 microliters containing 20 picomolar HIV-1 protease (final) and the reaction is incubated for 1 hour at 30° C. The reaction is quenched with the addition of formic acid and indinavir to 0.012% and 150 nM final concentrations, respectively. The product formation is determined after separation of product and substrate on a Zorbax Eclipse XDB-C 18 column connected to an API 4000 mass spectrometer (Applied Biosystems) with multiple reaction monitoring (transitions were 644.5/428.9 and 615.4/422.2 (M1/M3) for product and indinavir respectively). The extent of inhibition of the reaction is determined from the peak area of the products.

In the case of `COC(=O)N[C@H](C(=O)Nc1ccccc1CC[C@@H]1CN[C@H](COC(=O)N[C@H]2CO[C@H]3OCC[C@H]32)CO1)C(c1ccccc1)c1ccccc1` [Example 13, N-(2-{2-[(2R,5S)-5-({[(3R,3aS,6aR)-hexahydrofuro[2,3-b]furan-3-ylcarbamoyl]oxy}methyl)morpholin-2-yl]ethyl}phenyl)-Nα-(methoxycarbonyl)-β-phenyl-L-phenylalaninamide], the IC50 is reported as 110 nM.

Same assay, conditions: Pepcleav (nM), wild type HIV-1 protease expressed in E. coli, peptide substrate, pH 5.5; mean of at least two independent experiments

In the case of `COC(=O)N[C@H](C(=O)Nc1ccccc1CC[C@@H]1CN[C@H](CNC(=O)Oc2ccccc2)CO1)C(c1ccccc1)c1ccccc1` [Example 51, Nα-(methoxycarbonyl)-N-(2-{2-[(2R,5R)-5-{[(phenoxycarbonyl)amino]methyl}morpholin-2-yl]ethyl}phenyl)-β-phenyl-L-phenylalaninamide], the IC50 is reported as 38 nM.

Same assay, conditions: wild type HIV-1 protease expressed in E. coli, peptide substrate, pH 5.5; mean of at least two independent experiments; read-out: Pepcleav

Going from `COC(=O)N[C@H](C(=O)Nc1ccccc1CC[C@@H]1CN[C@H](C(=O)NCCc2ccccc2)CO1)C(c1ccccc1)c1ccccc1` [Example 6, Nα-(methoxycarbonyl)-β-phenyl-N-[2-(2-{(2R,5S)-5-[(2-phenylethyl)carbamoyl]morpholin-2-yl}ethyl)phenyl]-L-phenylalaninamide] to `COC(=O)N[C@H](C(=O)Nc1ccccc1CC[C@@H]1CN[C@H](C(=O)NNc2ccccc2)CO1)C(c1ccccc1)c1ccccc1` [Example 9, Nα-(methoxycarbonyl)-β-phenyl-N-[2-(2-{(2R,5S)-5-[(2-phenylhydrazinyl)carbonyl]morpholin-2-yl}ethyl)phenyl]-L-phenylalaninamide], the IC50 rises from 9.9 nM to 88 nM (8.9-fold).

Going from `COCC(=O)Nc1ccccc1CC[C@@H]1CO[C@H](CCc2ccccc2NC(=O)[C@@H](NC(=O)OC)C(c2ccccc2)c2ccccc2)CN1` [Example 70, methyl N-[(1S)-1-benzhydryl-2-[[2-[2-[(2R,5R)-5-[2-[2-[(2-methoxyacetyl)amino]phenyl]ethyl]morpholin-2-yl]ethyl]phenyl]amino]-2-oxo-ethyl]carbamate] to `COC(=O)Nc1ccccc1CC[C@@H]1CO[C@H](CCc2ccccc2NC(=O)[C@@H](NC(=O)OC)C(c2ccccc2)c2ccccc2)CN1` [Example 76, methyl N-[(1S)-1-benzhydryl-2-[[2-[2-[(2R,5R)-5-[2-[2-(methoxy-carbonylamino)phenyl]ethyl]morpholin-2-yl]ethyl]phenyl]amino]-2-oxo-ethyl]carbamate], the IC50 rises from 24 nM to 52 nM (2.2-fold).

Going from `N[C@H](C(=O)Nc1cncc(F)c1OC[C@@H]1CN[C@H](COC(=O)NCC(F)(F)F)CO1)C(c1ccc(F)cc1)c1ccc(F)cc1` [Example 203, 4-fluoro-β-(4-fluorophenyl)-N-(5-fluoro-4-{[(2S,5S)-5-({[(2,2,2-trifluoroethyl)carbamoyl]oxy}methyl)morpholin-2-yl]methoxy}pyridin-3-yl)-L-phenylalaninamide] to `Cc1cccc(NC(=O)[C@@H](N)C(c2ccc(F)cc2)c2ccc(F)cc2)c1CC[C@@H]1CN[C@H](COC(=O)NCC(F)(F)F)CO1` [Example 226, 4-fluoro-β-(4-fluorophenyl)-N-(3-methyl-2-{2-[(2R,5S)-5-({[(2,2,2-trifluoro-ethyl)carbamoyl]oxy}methyl)morpholin-2-yl]ethyl}phenyl)-L-phenylalaninamide], the IC50 rises from 28 nM to 360 nM (13-fold). The first is the more potent here.

First: N[C@H](C(=O)Nc1cncc(F)c1CC[C@@H]1CN[C@H](COC(=O)NCC2CCS(=O)(=O)C2)CO1)C(c1ccc(F)cc1)c1ccc(F)cc1 (stereo partly drawn) [Example 209, N-[4-(2-{(2R,5S)-5-[({[(1,1-dioxidotetrahydrothiophen-3-yl)methyl]carbamoyl}oxy)methyl]morpholin-2-yl}ethyl)-5-fluoropyridin-3-yl]-4-fluoro-β-(4-fluorophenyl)-L-phenylalaninamide]
Second: CC(C)(CO)NC(=O)OC[C@@H]1CO[C@H](CCc2c(F)cncc2NC(=O)[C@@H](N)C(c2ccc(F)cc2)c2ccc(F)cc2)CN1 [Example 218, 4-fluoro-N-(5-fluoro-4-{2-[(2R,5S)-5-({[(2-hydroxy-1,1-dimethylethyl)carbamoyl]oxy}methyl)morpholin-2-yl]ethyl}pyridin-3-yl)-β-(4-fluorophenyl)-L-phenylalaninamide]
The IC50 of the first is 7.6-fold higher: 16 nM for the first, 2.1 nM for the second. The second is the more potent here.

First: CCC[C@H](c1ccccc1)[C@H](N)C(=O)Nc1cccc(F)c1CC[C@@H]1CN[C@H](COC(=O)NCC(F)(F)F)CO1 [Example 228, (βR)-N-(3-fluoro-2-{2-[(2R,5S)-5-({[(2,2,2-trifluoroethyl)carbamoyl]oxy}methyl)morpholin-2-yl]ethyl}phenyl)-β-propyl-L-phenylalaninamide]
Second: N[C@H](C(=O)Nc1cccc(F)c1CC[C@@H]1CN[C@H](COC(=O)NCC(F)(F)F)CO1)[C@H](c1ccccc1)c1ccc(Oc2ccccc2)cc1 [Example 227, (βR)-N-(3-fluoro-2-{2-[(2R,5S)-5-( {[(2,2,2-trifluoroethyl)carbamoyl]oxy}methyl)morpholin-2-yl]ethyl}phenyl)-O,β-diphenyl-L-tyrosinamide]
The IC50 of the first is 1.8-fold lower: 190 nM for the first, 340 nM for the second.

Going from `COC(=O)N[C@H](C(=O)Nc1ccccc1CC[C@@H]1CN[C@H](C(=O)NC2CCOC2)CO1)C(c1ccccc1)c1ccccc1` (stereo partly drawn) [Example 4, Nα-(methoxycarbonyl)-β-phenyl-N-(2-{2-[(2R,5S)-5-(tetrahydrofuran-3-ylcarbamoyl)morpholin-2-yl]ethyl}phenyl)-L-phenylalaninamide] to `COC(=O)N[C@H](C(=O)Nc1ccccc1CC[C@@H]1CN[C@H](C(=O)NC(C)(C)C)CO1)C(c1ccccc1)c1ccccc1` [Example 8, N-(2-{2-[(2R,5S)-5-(tert-butylcarbamoyl)morpholin-2-yl]ethyl}phenyl)-Nα-(methoxycarbonyl)-β-phenyl-L-phenylalaninamide], the IC50 rises from 25 nM to 41 nM (1.6-fold). The first is the more potent here.

Going from `COC(=O)N[C@H](C(=O)Nc1ccccc1CC[C@@H]1CN[C@H](CNS(=O)(=O)c2ccccn2)CO1)C(c1ccccc1)c1ccccc1` [Example 48, methyl N-[(1S)-1-benzhydryl-2-oxo-2-[[2-[2-[(2R,5R)-5-[(2-pyridylsulfonylamino)methyl]morpholin-2-yl]ethyl]phenyl]amino]ethyl]carbamate] to `COC(=O)N[C@H](C(=O)Nc1ccccc1CC[C@@H]1CN[C@H](CNC(=O)Nc2ccccn2)CO1)C(c1ccccc1)c1ccccc1` [Example 42, methyl N-[(1S)-1-benzhydryl-2-oxo-2-[[2-[2-[(2R,5R)-5-[(2-pyridylcarbamoylamino)methyl]morpholin-2-yl]ethyl]phenyl]amino]ethyl]carbamate], the IC50 falls from 91 nM to 17 nM (5.4-fold).

Going from `COC(=O)N[C@H](C(=O)Nc1c(CC[C@@H]2CN[C@H](COC(=O)NCC(F)(F)F)CO2)ccnc1OC)C(c1ccccc1)c1ccccc1` [Example 35, Nα-(methoxycarbonyl)-N-(2-methoxy-4-{2-[(2R,5S)-5-({[(2,2,2-trifluoroethyl)carbamoyl]oxy}methyl)morpholin-2-yl]ethyl}pyridin-3-yl)-β-phenyl-L-phenylalaninamide] to `COC(=O)N[C@H](C(=O)Nc1ccccc1CC[C@@H]1CN[C@H](COC(=O)N(C)C)CO1)C(c1ccccc1)c1ccccc1` [Example 26, methyl N-[(1S)-1-benzhydryl-2-[[2-[2-[(2R,5S)-5-(dimethylcarbamoyloxymethyl)morpholin-2-yl]ethyl]phenyl]amino]-2-oxo-ethyl]carbamate], the IC50 rises from 60 nM to 210 nM (3.5-fold).

`COC(=O)N[C@H](C(=O)Nc1cccc(F)c1CC[C@@H]1CN[C@H](COC(=O)NCC(F)(F)F)CO1)[C@@H](c1ccc(Cl)c(F)c1)C1CCOCC1` [Example 129, (βR)-4-Chloro-3-fluoro-N-(3-fluoro-2-{2-[(2R,5S)-5-({[(2,2,2-trifluoroethyl)carbamoyl]oxy}methyl)morpholin-2-yl]ethyl}phenyl)-Nα-(methoxycarbonyl)-β-(tetrahydro-2H-pyran-4-yl)-L-phenylalaninamide] and `COC(=O)N[C@H](C(=O)Nc1ccccc1CC[C@@H]1CN[C@H](COC(=O)NCc2ccc(F)cc2)CO1)C(c1ccccc1)c1ccccc1` [Example 16, methyl N-[(1S)-1-benzhydryl-2-[[2-[2-[(2R,5S)-5-[(4-fluorophenyl)methylcarbamoyloxymethyl]morpholin-2-yl]ethyl]phenyl]amino]-2-oxo-ethyl]carbamate] are within 1.5-fold of each other in IC50: 8.6 nM for the first, 5.9 nM for the second.

Going from `COC(=O)N[C@H](C(=O)Nc1ccccc1CC[C@@H]1CN[C@H](CCc2ccccc2N)CO1)C(c1ccccc1)c1ccccc1` [Example 72, methyl N-[(1S)-1-[[2-[2-[(2R,5R)-5-[2-(2-aminophenyl)ethyl]morpholin-2-yl]ethyl]phenyl]carbamoyl]-2,2-diphenyl-ethyl]carbamate] to `COC(=O)N[C@H](C(=O)Nc1ccccc1CC[C@@H]1CN[C@H](CNS(=O)(=O)c2ccc(N)cc2)CO1)C(c1ccccc1)c1ccccc1` [Example 49, N-(2-{2-[(2R,5R)-5-({[(4-aminophenyl)sulfonyl]amino}methyl)morpholin-2-yl]ethyl}phenyl)-Nα-(methoxy-carbonyl)-β-phenyl-L-phenylalaninamide], the IC50 rises from 14 nM to 94 nM (6.7-fold).

Work on `COC(=O)N[C@H](C(=O)Nc1ccccc1CC[C@@H]1CN[C@H](CNC(=O)Nc2cccnn2)CO1)C(c1ccccc1)c1ccccc1` [Example 41, methyl N-[(1S)-1-benzhydryl-2-oxo-2-[[2-[2-[(2R,5R)-5-[(pyridazin-3-ylcarbamoyl-amino)methyl]morpholin-2-yl]ethyl]phenyl]amino]ethyl] carbamate] yielded an IC50 of 2.9 nM.
